Consider one molecule from US12404244B2, “Pan-KIT kinase inhibitor having quinoline structure and application thereof” (Tarapeutics Science Inc., priority 2018, dated 2025).

Bounds are passed on as bounds.

What all share (type): cell-based
The subject of assay [1] is TEL-KIT/D816E-BaF3. Description: Proliferation of TEL-KIT/D816E-BaF3 cells (CCK-8). The settings on record: Mus musculus; 72 hours, CCK-8; read-out: GI50 TEL-KIT/D816E-BaF3. From the text: (§1) Compounds as provided herein were further evaluated for their inhibitory effects on proliferation of cancer cells by testing their effects on growth of cancer cells. In this example the following cells were used: primary mouse B cells BaF3 (purchased from ATCC), GIST-T1 cells of the human gastrointestinal stromal tumor cell line (expressing wild-type KIT gene) (purchased from Cosmo Bio Co., Ltd. (Japan)). The present lab further constructed and used the following: mouse Tel-Kit-BaF3 (stably expressing KIT wild-type kinase), mouse Tel-Kit/T670I-BaF3 (stably expressing KIT T670I mutant kinase), mouse Tel-Kit/V559A-BaF3 (stably expressing KIT V559A mutant kinase), mouse Tel-Kit/V559D-BaF3 (stably expressing KIT V559D mutant kinase), mouse Tel-Kit/V559G-BaF3 (stably expressing KIT V559G mutant kinase), mouse Tel-Kit/V560D-BaF3 (stably expressing KIT V560D mutant kinase), mouse Tel-Kit/L576P-BaF3 (stably expressing KIT L576P mutant kinase), mouse Tel-Kit/V654A-BaF3 (stably expressing KIT V654A mutant kinase), mouse Tel-Kit/V654A/V559D-BaF3 (stably expressing KIT V654A V559D mutant kinase), mouse Tel-Kit/T670E-BaF3 (stably expressing KIT T670E mutant kinase), mouse Tel-Kit/T670I/V559D-BaF3 (stably expressing KIT T670I V559D mutant kinase), mouse Tel-Kit/S709F-BaF3 (stably expressing KIT S709F mutant kinase), mouse Tel-Kit/D816E-BaF3 (stably expressing KIT D816E mutant kinase), mouse Tel-Kit/D816H-BaF3 (stably expressing KIT D816H mutant kinase), mouse Tel-Kit/D820E-BaF3 (stably expressing KIT D820E mutant kinase), mouse Tel-Kit/D820G-BaF3 (stably expressing KIT D820G mutant kinase), mouse Tel-Kit/D820Y-BaF3 (stably expressing KIT D820Y mutant kinase), mouse Tel-Kit/N822K-BaF3 (stably expressing KIT N822K mutant kinase), mouse Tel-Kit/Y823D-BaF3 (stably expressing KIT Y823D mutant kinase), mouse Tel-Kit/A829P-BaF3 (stably expressing KIT A829P mutant kinase), GIST-T1-T670I cells of the human gastrointestinal stromal tumor cell line (expressing KIT-T670I mutant gene). The above cell lines were constructed by: amplifying respectively the sequences of human KIT and various mutant kinase regions of KIT via PCR, inserting the fragments respectively into MSCV-Puro vectors having a N-terminal TEL fragment and/or a NPM fragment and/or a TPR fragment (purchased from Clontech), transfecting mouse BaF3 cells with the vectors by means of retrovirus to obtain stably transfected cells, removing the growth factor IL-3, and thereby eventually obtaining cell lines that depend on the transferred protein KIT or various mutants of KIT. […]

In assay [2] the test system is TEL-KIT/D816H-BaF3. Description: Proliferation of TEL-KIT/D816H-BaF3 cells (CCK-8). The settings on record: Mus musculus; 72 hours, CCK-8; read-out: GI50 TEL-KIT/D816H-BaF3.
From the text: as §1

Assay [3] has as its system TEL-KIT/D820E-BaF3. Description: Proliferation of TEL-KIT/D820E-BaF3 cells (CCK-8). The following applies: Mus musculus; 72 hours, CCK-8; read-out: GI50 TEL-KIT/D820E-BaF3.
From the text: as §1

The subject of assay [4] is TEL-KIT/D820G-BaF3. Description: Proliferation of TEL-KIT/D820G-BaF3 cells (CCK-8). The following applies: Mus musculus; 72 hours, CCK-8; read-out: GI50 TEL-KIT/D820G-BaF3.
From the text: as §1

The test system of assay [5] is TEL-KIT/D820Y-BaF3. Description: Proliferation of TEL-KIT/D820Y-BaF3 cells (CCK-8). The following applies: Mus musculus; 72 hours, CCK-8; read-out: GI50 TEL-KIT/D820Y-BaF3.
From the text: as §1

Assay [6] has as its system TEL-KIT/N822K-BaF3. Description: Proliferation of TEL-KIT/N822K-BaF3 cells (CCK-8). The settings on record: Mus musculus; 72 hours, CCK-8; read-out: GI50 TEL-KIT/N822K-BaF3.
From the text: as §1

The test system of assay [7] is TEL-KIT/Y823D-BaF3. Description: Proliferation of TEL-KIT/Y823D-BaF3 cells (CCK-8). The settings on record: Mus musculus; 72 hours, CCK-8; read-out: GI50 TEL-KIT/Y823D-BaF3.
From the text: as §1

In assay [8] the test system is TEL-KIT/A829P-BaF3. Description: Proliferation of TEL-KIT/A829P-BaF3 cells (CCK-8). The settings on record: Mus musculus; 72 hours, CCK-8; read-out: GI50 TEL-KIT/A829P-BaF3.
From the text: as §1

Assay [9] has as its system GIST-T1. Description: Proliferation of GIST-T1 cells (CCK-8). The settings on record: Homo sapiens, GISTT1; 72 hours, CCK-8; read-out: GI50 GIST-T1.
From the text: as §1, with “gene).” for “gene). The above cell lines were constructed by: amplifying respectively the sequences of human KIT and various mutant kinase regions of KIT via PCR, inserting the fragments respectively into MSCV-Puro vectors having a N-terminal TEL fragment and/or a NPM fragment and/or a TPR fragment (purchased from Clontech), transfecting mouse BaF3 cells with the vectors by means of retrovirus to obtain stably transfected cells, removing the growth factor IL-3, and thereby eventually obtaining cell lines that depend on the transferred protein KIT or various mutants of KIT.”
(§2) The cells after incubation were detected using CCK-8 (purchased from MedChem Express, Shanghai, China) cell viability assay kit (CCK-8 may be reduced by dehydrogenase in living cells to a highly water-soluble yellow formazan product, and the amount of the resultant formazan is proportional to the number of living cells), the number of living cells were quantified with a microplate reader, and GI50 of the compounds and the control compounds were calculated (the results shown in Table 2 and Table 3).

Assay [10] has as its system GIST-T1/T670I. Description: Proliferation of GIST-T1/T670I cells (CCK-8). The following applies: Homo sapiens, GISTT1; 72 hours, CCK-8; read-out: GI50 GIST-T1/T670I.
From the text: as §1, with “gene).” for “gene). The above cell lines were constructed by: amplifying respectively the sequences of human KIT and various mutant kinase regions of KIT via PCR, inserting the fragments respectively into MSCV-Puro vectors having a N-terminal TEL fragment and/or a NPM fragment and/or a TPR fragment (purchased from Clontech), transfecting mouse BaF3 cells with the vectors by means of retrovirus to obtain stably transfected cells, removing the growth factor IL-3, and thereby eventually obtaining cell lines that depend on the transferred protein KIT or various mutants of KIT.”
as §2

For `Cc1ccc(NC(=O)c2ccc(CN3CCN(C)CC3)cc2)cc1Nc1nccc(-c2cccnc2)n1` [Imatinib, reference compound], the GI50 in assay [1] came out at 174 nM; in assay [2], 651 nM; in assay [3], 35 nM; in [4] it was 337 nM; in [5], 435 nM; in assay [6] it was 1470 nM. Besides, the GI50 in [7] was 5870 nM; in assay [8], 580 nM; in [9] it was 15 nM; in assay [10] it was over 10000 nM.
